Test results as given in patent publication EP0060954A1, “Derivatives of fluorophenacyl amines and their therapeutic use” (LABORATOIRE L. LAFON Société anonyme dite:, priority 1981, dated 1982).
Where “and” joins values, the source holds several entries; their conditions need not be identical. Identical values can stand only once.

What was measured:
souris [1] = experiment: Interaction with apomorphine, mouse; format: in vivo
Protocol: (§1) Le CRL 40827, en solution dans de l'eau distillée, a été administré par voie intrapéritonéale sous un volume de 20 ml/kg chez la souris mâle et un volume de 5 ml/kg chez le rat mâle. 1°) - Toxicité
Des lots de 6 souris reçoivent le CRL 40827 30 min avant l'injection sous-cutanée d'apomorphine à la dose de 1 ou 16 mg/kg.
(§2) En procédant selon les modalités opératoires données ci-dessus pour le CRL 40827, on observe ce qui suit.

souris [2] = experiment: CNS action of CRL 40727: sedative-type effects in the mouse; format: in vivo
souris [3] = experiment: Toxicity: maximal non-lethal dose DL-0, intraperitoneal; format: in vivo; settings: mouse, i.p.
Protocol: La dose maximale non mortelle, DL-0, est supérieure à 128 mg/kg et inférieure à 256 mg/kg, chez la souris, par voie I.P. 2°) - Action sur le SNC
as §1
La dose maximale non mortelle, DL-0, est supérieure à 64 mg/kg et inférieure à 128 mg/kg chez la souris mâle.
Le CRL 40854, en solution dans de l'eau distillée, a été administré par voie intrapéritonéale sous un volume de 20 ml/kg chez la souris màle et de 5 ml/kg chez le rat màle.
La dose maximale non mortelle DL-0 est supérieure à 128 mg/kg et inférieure à 256 mg/kg chez la souris.

chiens [4] = experiment: Cardiovascular action, intraduodenal route in dogs; format: in vivo, chien
Protocol: Trois chiens reçoivent le CRL 40727 par voie intraduodénale aux doses successives de 1 mg/kg, 2,5 mg/kg, 5 mg/kg et 10 mg/kg. On mesure les mêmes paramètres que ci-dessus. On observe ce qui suit.

homme = experiment: Clinical use as sedative and antidepressant agents; format: in vivo; settings: for résultats en tant qu'agents antidépresseurs chez l'homme: tablets or capsules of 5 mg, 3 per day
chiens [5] = experiment: Cardiovascular action, intravenous perfusion in dogs; format: in vivo, chien; settings: for minimal effective dose: Canis lupus familiaris, iv
Protocol: Deux chiens reçoivent le CRL 40727 par voie intraveineuse, en perfusion de 6 min, aux doses successives de 0,1 mg/kg, 1 mg/kg, 2,5 mg/kg, 5 mg/kg, 10 mg/kg et 20 mg/kg. On messure leur pression artérielle, leur fréquence cardiaque, leur débit fémoral, leur température rectale.

[6] = CNS action of CRL 40727: hypothermia and amphetamine stereotypies (species not given); settings: in vivo
souris [7] = experiment: Motility reduced by habituation to the enclosure; format: in vivo; settings: mouse
Protocol: Après 18 h de séjour dans les actimètres, les souris (6 par dose, 12 témoins) reçoivent le CRL 40827. Elles sont aussitôt replacées dans leurs enceintes respectives et, 30 min plus tard, on enregistre leur motilité pendant 30 min.
as §2

souris [8] = experiment: Interaction with oxotremorine; format: in vivo; settings: mouse
Protocol: Le CRL 40827 est administré à des lots de 6 souris 30 min avant l'injection intrapéritonéale de 0,5 mg/kg d'oxotrémo- rine. On observe que, dès la dose de 0,5 mg/kg, le CRL 40827 antagonise l'action hypothermisante de l'oxotrémorine; cet effet est très net à 32 mg/kg.
as §2

rat = experiment: Interaction with apomorphine, rat; format: in vivo; settings: i.p. 30 min before apomorphine 0,5 mg/kg s.c.
Protocol: as §1
Le CRL 40 827 est administré à des lots de 6 rats 30 min avant l'injection sous-cutanée de 0,5 mg/kg d'apomorphine.
as §2

souris [9] = experiment: Motility reduced by hypoxic aggression (acute hypobaric anoxia); format: in vivo; settings: mouse
Protocol: Une demi-heure après avoir reçu le CRL 40827, les souris (10 par dose, 20 témoins) sont soumises à une anoxie hypobare aiguë (dépression de 8 x 10^4 Pa en 90 s, détente de 45 s), puis elles sont placées en actimètre où leur motilité est enregistrée pendant 10 min.
as §2

souris [10] = experiment: Asphyxic anoxia (gallamine triethiodide); format: in vivo; settings: mouse
Protocol: Des lots de 10 souris reçoivent le CRL 40827 30 min avant l'administration intrapéritonéale d: 34 mg/kg de triiodoéthy- late de gallamine. A la plus forte dose (34 mg/kg),le CRL 40827 empêche l'apparition des convulsions et de la mort chez 40% des animaux.
as §2

souris mâles = experiment: Intergroup aggressiveness test (number of fights after removal of the partition); format: in vivo; settings: mouse; dose not given
Text: Des essais comparatifs ont été entrepris pour mettre en évidence quels sont les effets chez l'animal qui permettent de distinguer les produits selon l'invention de leurs homologues fluorés connus. Parmi ces essais, on a résumé ceux concernant les propriétés antiagressives. Plus précisément, on a évalué la diminution de l'agressivité intergroupes selon la technique suivante : a.près avoir séjourné pendant 3 semaines de part et d'autre d'une cloison opaque séparant leur cage par le milieu, des groupes de trois souris mâles de 20 g chacune environ reçoivent, par voie intrapéritonéale, les produits à tester en solution dans de l'eau distillée, les animaux témoins ne recevant que de l'eau distillée par voie intrapéritonéale. Une demi-heure plus tard, les deux groupes d'une même cage sont réunis par retrait de la cloison opaque et on note le nombre de combats qui surviennent en 10 min. On a utilisé trois cages pour chaque produit à tester et six cages pour le lot témoin ne recevant pas les produits à tester.
Les résultats du tableau I ci-après donnent la diminution de l'agressivité intergroupes par rapport au lot témoin, tous les produits à tester étant administrés à la dose de 8 mg/kg par voie intrapéritonéale. […]

souris [11] = experiment: Interaction with reserpine (hypothermia, ptosis); format: in vivo; settings: mouse
Protocol: Quatre heures après l'injection intrapéritonéale de 2,5 mg/kg de réserpine, des lots de 6 souris reçoivent le CRL 40827.
as §2

souris [12] = experiment: Spontaneous motility (actimeter); format: in vivo; settings: mouse; high dose 64 mg/kg
Protocol: Une demi-heure après avoir reçu le CRL 40827, les souris (6 par dose, 12 témoins) sont placées en actimètre où leur motilité est enregistrée pendant 30 min.
as §2

souris [13] = experiment: Four-plate test, traction and electroshock; format: in vivo; settings: mouse, 30 min after dosing
Protocol: Le test est pratiqué sur des lots de 10 souris, 30 min après l'administration de CRL 40827.
as §2

rats = experiment: Interaction with amphetamine (stereotypies); format: in vivo, rat; settings: 8 and 32 mg/kg
Protocol: L'amphétamine (2 mg/kg) est injectée par voie intrapéritonéale à des lots de 6 rats, 30 min après l'administration de CRL 40827. […] Interaction avec la réserpine
as §2

SMILES: CC(C)NCC(=O)c1ccc(F)cc1 [CRL 40727, chlorhydratede N-(4-fluorophénacyl)-isopropylamine]
- comportement de verticalisation et stéréotypies (apomorphine) (souris [1]): ne modifie pas
- action hypothermisante de la forte dose d'apomorphine (souris [1]; 0,5, 2 and above all 8 and 32 mg/kg i.p., 30 min before apomorphine 16 mg/kg s.c.): s'oppose nettement
- effets de type sédatif: motilité et agressivité (souris [2]): hypomotilité et diminution de l'agressivité
- effets de type sédatif: sédation, réactivité (souris [2]): sédation et hyporéactivité
- dose maximale non mortelle, DL-0 (souris [3]): > 128 mg/kg and < 256 mg/kg
- minimal effective dose (chiens [4]; Canis lupus familiaris, dog, intraduodenal, read-out: dose from which une action hypotensive appears): 10 mg/kg
- action hypotensive et vasodilatatrice (chiens [4]; another dog, 5 mg/kg I.V. at the end of the intraduodenal test): Le même résultat
- hypotension à l'isoprénaline (chiens [4]; dog, intraduodenal): n'est pas modifiée
- fréquence cardiaque (tachycardie à l'isoprénaline) (chiens [4]; dog, mean, after 10 mg/kg intraduodenal, control 220): 165 battements/min
- action hypotensive et vasodilatatrice (chiens [4]; one dog, supplementary dose of 20 mg/kg I.D.): action hypotensive plus importante, sans effet vasodilatateur supplémentaire
- résultats cliniques dans le domaine psychotrope en tant qu'agents sédatifs et antidépresseurs (homme; clinic): bons résultats
- résultats en tant qu'agents antidépresseurs chez l'homme (homme): excellents résultats
- minimal effective dose (chiens [5]; dog, i.v., successive doses 0,1 to 20 mg/kg, read-out: dose from which the débit fémoral increases): 1 mg/kg
- minimal effective dose (chiens [5]; dog, i.v., read-out: dose from which the pression artérielle diastolique decreases): 10 mg/kg
- minimal effective dose (chiens [5]; dog, i.v., read-out: dose from which the pression artérielle différentielle increases): 5 mg/kg
- minimal effective dose (chiens [5]; dog, i.v., read-out: dose from which the pression artérielle moyenne decreases): 20 mg/kg
- fréquence cardiaque (chiens [5]; dog, i.v.): n'est pas nettement modifiée
- hypotension à l'isoprénaline (chiens [5]; dog, i.v.): n'est pas modifiée
- fréquence cardiaque (tachycardie à l'isoprénaline) (chiens [5]; dog, mean, after 10 mg/kg i.v., control 215): 182 battements/min
- pression artérielle (chiens [5]; one dog, supplementary dose of 40 mg/kg I.V.): hypotension plus importante qu'à la dose précédente
- effets de type sédatif: température, effets hypothermisants de l'apomorphine, l'oxotrémorine et la réserpine [6]: hypothermie et potentialisation des effets hypothermisants de l'apomorphine, l'oxotrémorine et la réserpine
- stéréotypies amphétaminiques [6]: antagonisme modéré

SMILES: CC(C)(C)NCC(O)c1ccccc1F (stereo not shown) [CRL 40827A, fumaratede 1-(2-fluorophényl)-2-tertiobutylamino-1-éthanol]
- résultats en tant qu'agents antidépresseurs chez l'homme (homme): excellents résultats

SMILES: CC(C)(C)NCC(O)c1ccc(F)cc1 (stereo not shown) [CRL 40854, chlorhydratede 1-(4-fluorophényl)-2-tertiobutylamino-1-éthanol]
- activité motrice (souris habituée à son enceinte) (souris [7]): ne provoque pas de reprise nette
- comportement de verticalisation et stéréotypies (apomorphine) (souris [1]): sans modifier
- action hypothermisante de l'apomorphine (souris [1]; 16 and 64 mg/kg i.p.): s'oppose modérément
- signes de stimulation cholinergique périphérique (oxotrémorine) (souris [8]): ne modifie pas
- tremblements provoqués par l'oxotrémorine (souris [8]): ne modifie pas
- effet hypothermisant de l'oxotrémorine (souris [8]; doses printed 'le et 64 mg/kg'): aggrave
- stéréotypies induites par l'apomorphine (rat): ne modifie pas
- dose maximale non mortelle, DL-0 (souris [3]): > 128 mg/kg and < 256 mg/kg
- récupération motrice après anoxie hypobare (souris [9]): n'entraîne pas d'amélioration
- apparition des convulsions et mort (anoxie par curarisation) (souris [10]): ne modifie pas
- agressivité intergroupes / effet antiagressif (souris mâles): diminue l'agressivité intergroupes
- ptôsis réserpinique (souris [11]): gans modifier
- hypothermie réserpinique (souris [11]; 4, 16 and 64 mg/kg): antagonise modérément
- motilité spontanée (souris [12]): diminue modérément
- effets convulsivants de l'électrochoc (souris [13]): ne modifie pas les effets convulsivants
- incapacité motrice (traction) (souris [13]): ne provoque pas de déficit moteur majeur
- nombre de passages punis (test des quatre plaques) (souris [13]): n'entraîne pas d'augmen- tion
- durée des stéréotypies amphétaminiques (rats): potentialise

SMILES: COc1cc(OC)c(C(=O)CCCN2CCCC2)c(OC)c1 [LL 1656, chlorhydratede (2,4,6-triméthoxyphényl)-(3-pyrrolidino-propyl)-cétone, reference compound]
- vasodilatation (chiens [4]; 6 mg/kg i.v., injected after CRL 40727): n'entraîne pas de vasodilatation supplémentaire
- débit fémoral (chiens [5]; one dog, 6 mg/kg I.V. after the CRL 40727 doses): n'augmente pas plus qu'avec la dose de 10 mg/kg de CRL 40727
